Experimental data: patent EP0377642B1, “HERBICIDES FOR WEED CONTROL IN RICE” (E.I. DU PONT DE NEMOURS AND COMPANY, priority 1987, dated 1989)

Assays:
[1] = system: rice; assay: Herbicidal efficacy in relation to application timing in Indonesia (Table 5); format: in vivo
Text: (§1) Methyl 2-[[[[(4-methoxy-6-methyl-1,3,5-triazin-2-yl)amino]carbonyl]amino]sulfonyl]benzoate (Compound 1) and mixtures thereof with other compounds were applied as a spray (using a hand sprayer) to rice (either transplanted or direct seeded) in several rice growing areas in Southeast Asia and in the U.S. Tables 1-28 contain the results of these tests and clearly exemplify the utility of this invention. The details of each application are included in the appropriate table. [drawing 2]

[2] = system: CI; assay: as above; format: in vivo
Text: as §1

COC(=O)c1ccccc1S(=O)(=O)NC(=O)Nc1nc(C)nc(OC)n1 [Compound 1, Methyl 2-[[[[(4-methoxy-6-methyl-1,3,5-triazin-2-yl)amino]carbonyl]amino]sulfonyl]benzoate]
0%: % CONTROL RICE ([1]; 4 WAT, 4 GAI/HA, evaluation 3) | % CONTROL RICE ([1]; 4 WAT, 6 GAI/HA, evaluation 3) | % CONTROL RICE ([1]; 4 WAT, 8 GAI/HA, evaluation 3) | % CONTROL RICE ([1]; 5 WAT, 2 GAI/HA, evaluation 2) | % CONTROL RICE ([1]; 5 WAT, 2 GAI/HA, evaluation 3) | % CONTROL RICE ([1]; 5 WAT, 3 GAI/HA, evaluation 2) | % CONTROL RICE ([1]; 5 WAT, 3 GAI/HA, evaluation 3) | % CONTROL RICE ([1]; 5 WAT, 4 GAI/HA, evaluation 2) | % CONTROL RICE ([1]; 5 WAT, 4 GAI/HA, evaluation 3) | % CONTROL RICE ([1]; 5 WAT, 6 GAI/HA, evaluation 1) | % CONTROL RICE ([1]; 5 WAT, 6 GAI/HA, evaluation 2) | % CONTROL RICE ([1]; 5 WAT, 6 GAI/HA, evaluation 3) | % CONTROL RICE ([1]; 5 WAT, 8 GAI/HA, evaluation 3) | % CONTROL CI ([2]; 3 WAT, 2 GAI/HA, evaluation 1) | % CONTROL CI ([2]; 3 WAT, 2 GAI/HA, evaluation 2) | % CONTROL CI ([2]; 3 WAT, 2 GAI/HA, evaluation 3) | % CONTROL CI ([2]; 3 WAT, 3 GAI/HA, evaluation 2) | % CONTROL CI ([2]; 3 WAT, 3 GAI/HA, evaluation 3) | % CONTROL CI ([2]; 3 WAT, 4 GAI/HA, evaluation 2) | % CONTROL CI ([2]; 3 WAT, 4 GAI/HA, evaluation 3) | % CONTROL CI ([2]; 3 WAT, 6 GAI/HA, evaluation 2) | % CONTROL CI ([2]; 3 WAT, 6 GAI/HA, evaluation 3) | % CONTROL CI ([2]; 3 WAT, 8 GAI/HA, evaluation 2) | % CONTROL CI ([2]; 3 WAT, 8 GAI/HA, evaluation 3) | % CONTROL CI ([2]; 4 WAT, 2 GAI/HA, evaluation 1) | % CONTROL CI ([2]; 4 WAT, 2 GAI/HA, evaluation 2) | % CONTROL CI ([2]; 4 WAT, 2 GAI/HA, evaluation 3) | % CONTROL CI ([2]; 4 WAT, 3 GAI/HA, evaluation 1) | % CONTROL CI ([2]; 4 WAT, 3 GAI/HA, evaluation 2) | % CONTROL CI ([2]; 4 WAT, 3 GAI/HA, evaluation 3) | % CONTROL CI ([2]; 4 WAT, 4 GAI/HA, evaluation 3) | % CONTROL CI ([2]; 4 WAT, 6 GAI/HA, evaluation 3) | % CONTROL CI ([2]; 4 WAT, 8 GAI/HA, evaluation 3) | % CONTROL CI ([2]; 5 WAT, 2 GAI/HA, evaluation 1) | % CONTROL CI ([2]; 5 WAT, 2 GAI/HA, evaluation 2) | % CONTROL CI ([2]; 5 WAT, 2 GAI/HA, evaluation 3) | % CONTROL CI ([2]; 5 WAT, 3 GAI/HA, evaluation 3) | % CONTROL CI ([2]; 5 WAT, 4 GAI/HA, evaluation 3) | % CONTROL CI ([2]; 5 WAT, 6 GAI/HA, evaluation 3)
50%: % CONTROL CI ([2]; 5 WAT, 3 GAI/HA, evaluation 1)
60%: % CONTROL CI ([2]; 5 WAT, 4 GAI/HA, evaluation 1) | % CONTROL CI ([2]; 5 WAT, 6 GAI/HA, evaluation 1) | % CONTROL CI ([2]; 5 WAT, 8 GAI/HA, evaluation 1) | % CONTROL CI ([2]; 5 WAT, 8 GAI/HA, evaluation 2)
30%: % CONTROL RICE ([1]; 5 WAT, 4 GAI/HA, evaluation 1) | % CONTROL RICE ([1]; 5 WAT, 8 GAI/HA, evaluation 1) | % CONTROL CI ([2]; 5 WAT, 4 GAI/HA, evaluation 2) | % CONTROL CI ([2]; 5 WAT, 8 GAI/HA, evaluation 3)
20%: % CONTROL RICE ([1]; 4 WAT, 4 GAI/HA, evaluation 1) | % CONTROL RICE ([1]; 4 WAT, 4 GAI/HA, evaluation 2) | % CONTROL RICE ([1]; 4 WAT, 6 GAI/HA, evaluation 1) | % CONTROL RICE ([1]; 4 WAT, 6 GAI/HA, evaluation 2) | % CONTROL RICE ([1]; 4 WAT, 8 GAI/HA, evaluation 1) | % CONTROL RICE ([1]; 4 WAT, 8 GAI/HA, evaluation 2) | % CONTROL CI ([2]; 3 WAT, 3 GAI/HA, evaluation 1) | % CONTROL CI ([2]; 3 WAT, 4 GAI/HA, evaluation 1) | % CONTROL CI ([2]; 3 WAT, 6 GAI/HA, evaluation 1) | % CONTROL CI ([2]; 3 WAT, 8 GAI/HA, evaluation 1) | % CONTROL CI ([2]; 4 WAT, 4 GAI/HA, evaluation 1) | % CONTROL CI ([2]; 4 WAT, 4 GAI/HA, evaluation 2) | % CONTROL CI ([2]; 4 WAT, 6 GAI/HA, evaluation 1) | % CONTROL CI ([2]; 4 WAT, 6 GAI/HA, evaluation 2) | % CONTROL CI ([2]; 4 WAT, 8 GAI/HA, evaluation 1) | % CONTROL CI ([2]; 4 WAT, 8 GAI/HA, evaluation 2) | % CONTROL CI ([2]; 5 WAT, 3 GAI/HA, evaluation 2)
10%: % CONTROL RICE ([1]; 5 WAT, 2 GAI/HA, evaluation 1) | % CONTROL RICE ([1]; 5 WAT, 3 GAI/HA, evaluation 1) | % CONTROL RICE ([1]; 5 WAT, 8 GAI/HA, evaluation 2)
40%: % CONTROL CI ([2]; 5 WAT, 6 GAI/HA, evaluation 2)
